Five molecules from publication PMC3145970, “Specific CLK Inhibitors from a Novel Chemotype for Regulation of Alternative Splicing” (Chemistry & Biology, 2011) can be followed below.

Like-named read-outs stand apart in the source and are kept apart here.

Common to all, as to experiment: Thermal stability shift assay
Common to all, as to format: binding

The target of one test is CDK8 (Homo sapiens, UniProt P49336). Conditions: read-out: Tm shift CDK8. The gist of the method: (§1)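 Inhibitor (10 μM) was mixed with kinase (2 μM) in HEPES-buffered saline (10 mM, pH 7.5; 500 mM NaCl) plus SyproOrange, then the sample was heated stepwise in a real-time PCR machine to record denaturation.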
CDK8, sequence (P49336 whole entry): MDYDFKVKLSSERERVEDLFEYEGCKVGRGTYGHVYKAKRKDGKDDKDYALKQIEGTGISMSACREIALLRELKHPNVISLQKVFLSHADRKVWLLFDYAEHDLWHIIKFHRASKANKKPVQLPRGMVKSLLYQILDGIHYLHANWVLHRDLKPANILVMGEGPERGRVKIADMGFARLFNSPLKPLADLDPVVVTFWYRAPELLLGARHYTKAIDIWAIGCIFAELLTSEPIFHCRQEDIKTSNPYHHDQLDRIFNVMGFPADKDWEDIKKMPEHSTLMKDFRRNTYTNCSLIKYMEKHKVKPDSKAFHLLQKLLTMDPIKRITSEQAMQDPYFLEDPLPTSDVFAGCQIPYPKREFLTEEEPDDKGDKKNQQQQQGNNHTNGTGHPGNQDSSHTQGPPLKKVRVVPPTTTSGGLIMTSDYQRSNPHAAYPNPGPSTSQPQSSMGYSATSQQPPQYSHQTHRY
The target in a further test is CK2a2 (Homo sapiens, UniProt P19784). Conditions: read-out: Tm shift CK2a2. The gist of the method:
as §1

A further test concerns the target CaMK2a (Homo sapiens, UniProt Q9UQM7). Conditions: read-out: Tm shift CaMK2a. A digest of the protocol:
as §1

A further test concerns the target T1, JNK1 (Homo sapiens, UniProt P45983).
T1 construct: purchased in-house (SGC Oxford thermal shift panel)
The conditions noted are these: read-out: Tm shift JNK1. The gist of the method:
as §1

Another test addresses T2, JNK2 (Homo sapiens, UniProt P45984).
T2 construct: purchased in-house (SGC Oxford thermal shift panel)
The conditions noted are these: read-out: Tm shift JNK2. A digest of the protocol: as §1

A further test deals with T3, MAP3K5 (Homo sapiens, UniProt Q99683).
T3 construct: purchased in-house (SGC Oxford thermal shift panel)
T3 sequence (Q99683 1-1374): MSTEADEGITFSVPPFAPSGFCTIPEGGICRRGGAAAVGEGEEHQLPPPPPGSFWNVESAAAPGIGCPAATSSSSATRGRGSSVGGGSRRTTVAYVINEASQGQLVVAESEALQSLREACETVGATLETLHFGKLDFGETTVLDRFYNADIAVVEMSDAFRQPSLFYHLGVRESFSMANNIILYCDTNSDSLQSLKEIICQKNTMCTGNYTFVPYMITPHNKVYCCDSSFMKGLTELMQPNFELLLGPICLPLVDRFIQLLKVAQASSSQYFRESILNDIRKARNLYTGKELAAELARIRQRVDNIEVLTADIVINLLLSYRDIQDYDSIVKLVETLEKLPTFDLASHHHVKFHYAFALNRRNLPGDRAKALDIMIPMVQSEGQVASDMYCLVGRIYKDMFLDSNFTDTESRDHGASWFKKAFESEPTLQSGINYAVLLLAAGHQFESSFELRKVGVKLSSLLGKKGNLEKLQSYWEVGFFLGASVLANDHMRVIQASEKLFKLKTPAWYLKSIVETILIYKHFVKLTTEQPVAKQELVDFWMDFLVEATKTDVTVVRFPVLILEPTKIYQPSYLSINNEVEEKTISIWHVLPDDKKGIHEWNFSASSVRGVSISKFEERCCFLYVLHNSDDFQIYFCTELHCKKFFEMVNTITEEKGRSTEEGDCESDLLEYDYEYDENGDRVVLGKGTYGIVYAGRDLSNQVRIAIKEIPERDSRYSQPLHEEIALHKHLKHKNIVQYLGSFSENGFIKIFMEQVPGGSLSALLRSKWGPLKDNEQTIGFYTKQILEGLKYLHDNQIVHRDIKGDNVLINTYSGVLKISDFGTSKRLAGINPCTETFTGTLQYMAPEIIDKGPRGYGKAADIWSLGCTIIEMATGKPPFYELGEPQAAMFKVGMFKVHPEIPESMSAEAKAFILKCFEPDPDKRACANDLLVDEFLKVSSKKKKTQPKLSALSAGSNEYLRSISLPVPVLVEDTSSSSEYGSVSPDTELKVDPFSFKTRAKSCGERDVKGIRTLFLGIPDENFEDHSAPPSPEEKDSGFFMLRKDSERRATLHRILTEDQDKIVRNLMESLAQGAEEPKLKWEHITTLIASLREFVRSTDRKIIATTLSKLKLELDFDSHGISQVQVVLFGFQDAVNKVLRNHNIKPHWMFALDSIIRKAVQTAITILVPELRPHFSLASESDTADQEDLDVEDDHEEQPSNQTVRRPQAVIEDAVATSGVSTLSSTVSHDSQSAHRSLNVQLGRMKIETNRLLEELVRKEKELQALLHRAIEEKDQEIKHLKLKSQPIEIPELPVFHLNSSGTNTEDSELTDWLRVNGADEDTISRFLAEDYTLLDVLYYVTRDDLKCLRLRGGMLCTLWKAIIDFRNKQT
Conditions: read-out: Tm shift MAP3K5. A digest of the protocol: as §1

The target of the next test is T4, NDR1 (Homo sapiens, UniProt Q15208).
T4 construct: purchased in-house (SGC Oxford thermal shift panel)
T4 sequence (Q15208 whole entry): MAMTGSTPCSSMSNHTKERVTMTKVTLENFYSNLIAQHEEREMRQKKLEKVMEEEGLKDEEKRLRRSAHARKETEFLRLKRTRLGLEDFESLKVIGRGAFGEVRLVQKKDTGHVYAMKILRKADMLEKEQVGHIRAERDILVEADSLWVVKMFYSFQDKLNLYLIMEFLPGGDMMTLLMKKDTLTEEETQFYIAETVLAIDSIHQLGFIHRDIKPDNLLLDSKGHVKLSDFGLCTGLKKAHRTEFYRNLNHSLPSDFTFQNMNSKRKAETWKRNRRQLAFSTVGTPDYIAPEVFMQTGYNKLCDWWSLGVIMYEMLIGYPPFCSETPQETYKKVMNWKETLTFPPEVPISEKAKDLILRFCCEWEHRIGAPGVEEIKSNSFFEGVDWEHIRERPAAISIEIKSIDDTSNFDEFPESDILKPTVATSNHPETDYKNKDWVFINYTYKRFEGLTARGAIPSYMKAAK
Conditions: read-out: Tm shift NDR1. The gist of the method: as §1

The next test concerns the target T5, NEK7 (Homo sapiens, UniProt Q8TDX7).
T5 construct: purchased in-house (SGC Oxford thermal shift panel)
The conditions noted are these: read-out: Tm shift NEK7. A digest of the protocol:
as §1

Another test addresses PIM2 (Homo sapiens, UniProt Q9P1W9). The conditions noted are these: read-out: Tm shift PIM2. The gist of the method:
as §1

Another test deals with RSK4 (Homo sapiens, UniProt Q9UK32). The conditions noted are these: read-out: Tm shift RSK4. A digest of the protocol: as §1
RSK4, sequence (Q9UK32 whole entry): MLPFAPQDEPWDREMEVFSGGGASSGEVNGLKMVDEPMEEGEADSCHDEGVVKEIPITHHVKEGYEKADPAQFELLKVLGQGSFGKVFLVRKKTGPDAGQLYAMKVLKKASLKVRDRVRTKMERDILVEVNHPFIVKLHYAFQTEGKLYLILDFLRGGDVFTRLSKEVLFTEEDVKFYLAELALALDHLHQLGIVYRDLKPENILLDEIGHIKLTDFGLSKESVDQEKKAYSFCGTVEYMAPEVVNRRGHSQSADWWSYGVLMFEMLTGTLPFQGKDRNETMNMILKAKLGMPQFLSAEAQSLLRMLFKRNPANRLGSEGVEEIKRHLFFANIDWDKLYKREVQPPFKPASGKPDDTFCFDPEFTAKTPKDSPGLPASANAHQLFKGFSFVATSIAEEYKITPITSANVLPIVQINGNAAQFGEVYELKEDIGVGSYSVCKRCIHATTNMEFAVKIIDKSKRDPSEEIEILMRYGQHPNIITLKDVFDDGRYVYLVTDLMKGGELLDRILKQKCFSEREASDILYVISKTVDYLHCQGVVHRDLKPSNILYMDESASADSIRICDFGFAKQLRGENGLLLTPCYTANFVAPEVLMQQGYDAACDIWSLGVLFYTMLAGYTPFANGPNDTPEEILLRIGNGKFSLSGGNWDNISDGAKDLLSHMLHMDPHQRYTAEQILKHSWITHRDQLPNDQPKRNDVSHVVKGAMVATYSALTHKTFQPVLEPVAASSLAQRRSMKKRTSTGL
The target in a further test is T6, VRK1 (Homo sapiens, UniProt Q99986).
T6 sequence (Q99986 1-396): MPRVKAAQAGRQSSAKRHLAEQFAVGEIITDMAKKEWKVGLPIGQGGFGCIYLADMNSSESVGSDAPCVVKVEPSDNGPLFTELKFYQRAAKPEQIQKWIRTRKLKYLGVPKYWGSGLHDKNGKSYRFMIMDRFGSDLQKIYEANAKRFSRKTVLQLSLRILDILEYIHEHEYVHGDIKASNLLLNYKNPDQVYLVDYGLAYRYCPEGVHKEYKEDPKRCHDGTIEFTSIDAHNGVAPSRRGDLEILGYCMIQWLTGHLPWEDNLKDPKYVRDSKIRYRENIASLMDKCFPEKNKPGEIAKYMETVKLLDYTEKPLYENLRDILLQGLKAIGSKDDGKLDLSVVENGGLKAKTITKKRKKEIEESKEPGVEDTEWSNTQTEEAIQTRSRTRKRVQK
Conditions: read-out: Tm shift VRK1. The gist of the method:
as §1

A further test concerns the target T7, p38d (Homo sapiens, UniProt O15264).
T7 construct: purchased in-house (SGC Oxford thermal shift panel)
T7 sequence (O15264 1-365): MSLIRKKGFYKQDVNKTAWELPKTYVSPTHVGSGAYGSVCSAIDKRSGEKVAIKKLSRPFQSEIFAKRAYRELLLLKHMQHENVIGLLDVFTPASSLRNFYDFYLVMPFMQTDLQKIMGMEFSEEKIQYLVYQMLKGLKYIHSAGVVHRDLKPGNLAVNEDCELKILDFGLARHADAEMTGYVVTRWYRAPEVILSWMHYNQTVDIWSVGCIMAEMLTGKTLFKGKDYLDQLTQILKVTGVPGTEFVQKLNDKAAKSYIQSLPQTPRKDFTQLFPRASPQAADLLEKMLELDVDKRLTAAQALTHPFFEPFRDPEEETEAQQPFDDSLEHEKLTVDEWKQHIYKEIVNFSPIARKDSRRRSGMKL
Conditions: read-out: Tm shift p38d. A digest of the protocol:
as §1

PIM2, sequence (Q9P1W9 whole entry): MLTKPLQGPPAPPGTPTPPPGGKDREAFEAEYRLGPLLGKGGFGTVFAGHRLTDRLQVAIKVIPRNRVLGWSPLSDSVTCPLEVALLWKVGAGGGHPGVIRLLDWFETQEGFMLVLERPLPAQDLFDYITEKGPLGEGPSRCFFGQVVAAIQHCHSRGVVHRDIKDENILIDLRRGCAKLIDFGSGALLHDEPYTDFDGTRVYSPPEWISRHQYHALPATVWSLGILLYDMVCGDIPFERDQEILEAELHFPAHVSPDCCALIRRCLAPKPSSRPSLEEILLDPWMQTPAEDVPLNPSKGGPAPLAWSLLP
CaMK2a, sequence (Q9UQM7 whole entry): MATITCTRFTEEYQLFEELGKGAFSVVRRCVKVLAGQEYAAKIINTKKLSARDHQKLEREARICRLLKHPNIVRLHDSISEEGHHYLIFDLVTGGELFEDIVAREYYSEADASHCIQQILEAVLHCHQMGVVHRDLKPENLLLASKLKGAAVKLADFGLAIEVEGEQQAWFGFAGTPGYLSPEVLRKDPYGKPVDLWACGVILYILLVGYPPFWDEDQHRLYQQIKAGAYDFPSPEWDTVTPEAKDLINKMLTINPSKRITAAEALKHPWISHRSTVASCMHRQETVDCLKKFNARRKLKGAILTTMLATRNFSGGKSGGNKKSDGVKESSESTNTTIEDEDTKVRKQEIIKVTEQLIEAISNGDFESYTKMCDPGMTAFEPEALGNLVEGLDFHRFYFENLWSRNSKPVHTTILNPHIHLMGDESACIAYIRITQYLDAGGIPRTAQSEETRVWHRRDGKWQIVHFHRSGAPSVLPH
CK2a2, sequence (P19784 whole entry): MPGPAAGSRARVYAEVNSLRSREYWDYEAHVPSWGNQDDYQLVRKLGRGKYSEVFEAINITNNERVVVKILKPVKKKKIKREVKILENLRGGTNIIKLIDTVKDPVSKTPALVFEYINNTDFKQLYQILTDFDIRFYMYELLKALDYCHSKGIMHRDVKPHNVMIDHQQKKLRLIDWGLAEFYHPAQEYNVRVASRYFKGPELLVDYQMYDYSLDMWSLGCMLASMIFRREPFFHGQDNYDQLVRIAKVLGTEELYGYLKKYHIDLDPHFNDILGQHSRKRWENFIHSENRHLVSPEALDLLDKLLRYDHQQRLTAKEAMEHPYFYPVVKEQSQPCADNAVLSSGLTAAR
T2 sequence (P45984 whole entry): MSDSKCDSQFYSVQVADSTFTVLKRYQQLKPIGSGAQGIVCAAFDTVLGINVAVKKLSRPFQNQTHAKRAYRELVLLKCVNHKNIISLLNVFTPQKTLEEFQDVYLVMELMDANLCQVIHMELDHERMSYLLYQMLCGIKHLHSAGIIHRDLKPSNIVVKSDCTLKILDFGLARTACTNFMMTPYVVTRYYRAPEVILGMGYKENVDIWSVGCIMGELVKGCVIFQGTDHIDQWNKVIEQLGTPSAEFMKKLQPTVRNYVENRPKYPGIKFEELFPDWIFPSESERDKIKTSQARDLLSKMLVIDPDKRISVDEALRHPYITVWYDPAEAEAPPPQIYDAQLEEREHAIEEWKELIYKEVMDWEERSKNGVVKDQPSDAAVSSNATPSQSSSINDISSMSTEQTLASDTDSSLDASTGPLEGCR
T5 sequence (Q8TDX7 whole entry): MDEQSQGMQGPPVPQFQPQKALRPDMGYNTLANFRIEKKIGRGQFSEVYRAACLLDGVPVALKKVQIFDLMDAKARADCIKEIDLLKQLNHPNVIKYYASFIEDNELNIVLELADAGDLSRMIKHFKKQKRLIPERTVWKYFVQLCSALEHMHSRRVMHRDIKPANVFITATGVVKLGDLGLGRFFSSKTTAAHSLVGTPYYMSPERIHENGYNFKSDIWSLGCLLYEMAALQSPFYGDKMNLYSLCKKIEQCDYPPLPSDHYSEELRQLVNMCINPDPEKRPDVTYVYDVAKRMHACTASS
T1 sequence (P45983 whole entry): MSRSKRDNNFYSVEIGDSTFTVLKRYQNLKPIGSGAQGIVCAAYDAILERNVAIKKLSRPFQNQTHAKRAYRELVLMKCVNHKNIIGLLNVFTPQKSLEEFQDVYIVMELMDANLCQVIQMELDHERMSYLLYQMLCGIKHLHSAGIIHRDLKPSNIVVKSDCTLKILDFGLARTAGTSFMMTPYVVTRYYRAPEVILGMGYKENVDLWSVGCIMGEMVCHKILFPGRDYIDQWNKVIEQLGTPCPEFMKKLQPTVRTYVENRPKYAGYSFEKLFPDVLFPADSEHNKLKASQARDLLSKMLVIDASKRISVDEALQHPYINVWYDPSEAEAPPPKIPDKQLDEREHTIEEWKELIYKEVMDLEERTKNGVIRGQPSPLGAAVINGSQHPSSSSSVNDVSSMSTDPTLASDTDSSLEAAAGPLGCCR

In the case of `Cn1c2c(Cl)c(Cl)ccc2c2c(C#N)c[nH]c(=O)c21` [compound 3, 7,8-Dichloro-9-Methyl-1-Oxo-2,9-Dihydro-1H-Pyrido[3,4-b]Indole-4-Carbonitrile], the ΔTm at 10 µM was 2.5 °C at CDK8 (inhibitor 10 μM); 1.7 °C on CK2a2 (inhibitor 10 μM); 0.5 °C on CaMK2a (inhibitor 10 μM); 0.2 °C on JNK1 (inhibitor 10 μM); -0.5 °C at JNK2 (inhibitor 10 μM); 0.8 °C on MAP3K5 (inhibitor 10 μM). The ΔTm at 10 µM is 0.7 °C at NDR1 (inhibitor 10 μM); 0.6 °C at NEK7 (inhibitor 10 μM); 3 °C at PIM2 (inhibitor 10 μM); 1.3 °C on RSK4 (inhibitor 10 μM); -0.4 °C at VRK1 (inhibitor 10 μM); 0.3 °C at p38d (inhibitor 10 μM).
For the molecule `CCOC(=O)c1c(C(C#N)=CN)c2ccc(Cl)c(Cl)c2n1C` (mixture of isomers) [KH-CB20, (E/Z)-Ethyl 3-(2-Amino-1-Cyanovinyl)-6,7-Dichloro-1-Methyl-1H-Indole-2-Carboxylate], the ΔTm at 10 µM at CDK8 amounted to 1.3 °C; on CK2a2, 1.3 °C; on CaMK2a, 0.7 °C; on JNK1, 0.2 °C; at JNK2, 0.5 °C; at MAP3K5, 0.5 °C. The ΔTm at 10 µM at NDR1 was 0.3 °C; at NEK7, 0.1 °C; at PIM2, 2.1 °C; at RSK4 it was 1.1 °C; at VRK1, 0.2 °C; on p38d it was -0.3 °C.
In the case of `NC1=NC(=O)/C(=C2\CCNC(=O)c3[nH]c(Br)cc32)N1` [Hymenialdisine, hymenialdisine, reference compound], the ΔTm at 10 µM at CDK8 (inhibitor 10 μM) is 0.1 °C; on CK2a2 (inhibitor 10 μM) it was 1.2 °C; on CaMK2a (inhibitor 10 μM), 0.4 °C; on JNK1 (inhibitor 10 μM) it was -0.5 °C; at JNK2 (inhibitor 10 μM) it was -0.1 °C; at MAP3K5 (inhibitor 10 μM) it was 8.7 °C. In addition, the ΔTm at 10 µM at NDR1 (inhibitor 10 μM) was 1 °C; on NEK7 (inhibitor 10 μM), 0.6 °C; at PIM2 (inhibitor 10 μM), 3.5 °C; on RSK4 (inhibitor 10 μM), 1.7 °C; on VRK1 (inhibitor 10 μM), 2 °C; on p38d (inhibitor 10 μM) it was -0.1 °C.
Regarding `CCOC(=O)c1c(/C(C#N)=C\N)c2ccc(Cl)c(Cl)c2n1C` [KH-CB19, (E)-Ethyl 3-(2-Amino-1-Cyanovinyl)-6,7-Dichloro-1-Methyl-1H-Indole-2-Carboxylate], the ΔTm at 10 µM at CDK8 was 1.5 °C; at CK2a2, 1.4 °C; on CaMK2a, 0.5 °C; on JNK1 it was 0.9 °C; on JNK2 it was -0.2 °C; at MAP3K5, 0.8 °C. The ΔTm at 10 µM came to 0.2 °C at NDR1; 0 °C on NEK7; 2.1 °C at PIM2; 1.6 °C on RSK4; 0 °C at VRK1; 0.3 °C at p38d.
With `CCOC(=O)c1c(C(C#N)=CN(C)C)c2ccc(Cl)c(Cl)c2n1C` (mixture of isomers) [compound 2, (E/Z)-Ethyl 6,7-Dichloro-3-[1-Cyano-2-(Dimethylamino)Vinyl]-1-Methyl-1H-Indole-2-Carboxylate], the ΔTm at 10 µM on CDK8 (inhibitor 10 μM) is 0.4 °C; on CK2a2 (inhibitor 10 μM), 0 °C; on CaMK2a (inhibitor 10 μM), 1 °C; on JNK1 (inhibitor 10 μM), 0.1 °C; at JNK2 (inhibitor 10 μM), -0.2 °C; at MAP3K5 (inhibitor 10 μM) it was 0.2 °C. Moreover, the ΔTm at 10 µM at NDR1 (inhibitor 10 μM) is 0.4 °C; on NEK7 (inhibitor 10 μM), -0.7 °C; on PIM2 (inhibitor 10 μM), 0.8 °C; at RSK4 (inhibitor 10 μM), -0.2 °C; at VRK1 (inhibitor 10 μM), 0.2 °C; at p38d (inhibitor 10 μM), 0.4 °C.
